# In paper PMC4281101 (Journal of Medicinal Chemistry, 2014):
# Legend:
# [1] = Pharmacokinetics analysis of 3r in CD-1 mice; format: in vivo; conditions: 5 mg/kg
# KM mice = assay: Acute toxicity in mice; format: in vivo
# [2] = system: PEPCK mRNA expression in HepG2 cell; assay: Cell-based assay for inhibition on the mRNA expression of PEPCK
# [3] = Stability in the mouse liver microsome; conditions: for microsomal CLint at 0.5 μM: CD-1, mouse, liver microsomes, pH 7.4; for Clapp / Clh / Eh / k: CD-1 mouse liver microsomes
# [4] = system: G-6-Pase mRNA expression in HepG2 cell; assay: Cell-based assay for inhibition on the mRNA expression of G-6-Pase
# [5] = Solubility in simulated gastric/intestinal fluids; format: physicochemical; conditions: simulated intestinal fluid, pH 6.8
# [6] = Pharmacokinetics analysis of 8r in SD rats; format: in vivo; conditions: 5 mg/kg; for T1/2: SD rats
# PDE9A2 (181–506) [7] = biological target: T1, PDE9A2 (181–506) (Homo sapiens, UniProt O76083); assay: PDE enzymatic assay, PDE9A2 catalytic domain; format: biochemical
# Pharmacokinetics of 28s = format: in vivo; conditions: blood, po, 5 mg/kg
# PDE9A2 (181–506) [8] = biological target: T1, PDE9A2 (181–506); conditions: read-out: IC50 ± SD, PDE9A2 (181–506); 28s from previous report; cited from earlier work
# [9] = HepG2 cell-based assay, general statement
# [10] = HepG2 cell, cAMP/dexamethasone stimulation, 300 nM, in words
# T1 sequence (O76083 241-566): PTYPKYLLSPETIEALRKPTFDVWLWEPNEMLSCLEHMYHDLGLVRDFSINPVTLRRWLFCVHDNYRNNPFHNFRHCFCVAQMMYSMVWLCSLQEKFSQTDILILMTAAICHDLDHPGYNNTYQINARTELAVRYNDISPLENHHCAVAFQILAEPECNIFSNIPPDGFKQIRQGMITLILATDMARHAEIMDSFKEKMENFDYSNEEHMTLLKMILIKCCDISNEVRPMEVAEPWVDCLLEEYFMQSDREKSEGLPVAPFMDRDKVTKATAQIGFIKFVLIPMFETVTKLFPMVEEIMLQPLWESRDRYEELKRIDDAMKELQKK
molecule,measurement,setting,value
"COc1ccc(NC(=O)[C@@H](C)Nc2nc3c(cnn3C3CCCC3)c(=O)[nH]2)cc1 [Compound 3r, (R)-2-((1-Cyclopentyl-4-hydroxy-1H-pyrazolo[3,4-d]pyrimidin-6-yl)amino)-N-(4-methoxyphenyl)propanamide]",T1/2,"[1]; iv, CD-1 mice",5.34 ± 1.43 h
same,MRT inf,"[1]; male, CD-1, mouse, blood, iv",1.08 ± 0.08 h
same,Vd,"[1]; male, CD-1, mouse, blood, iv",1.53 ± 0.15 L/kg
same,clearance,"[1]; male, CD-1, mouse, blood, iv",23.8 mL/min/kg
same,C0,"[1]; male, CD-1, mouse, blood, iv, C0, iv, CD-1 mice",24500 ± 7520 ng/mL
same,Cmax,"[1]; male, CD-1, mouse, blood, po",217 ng/mL
same,MRT inf,"[1]; male, CD-1, mouse, blood, po",2.65 ± 0.82 h
same,Tmax,"[1]; male, CD-1, mouse, blood, po",0.58 ± 0.38 h
same,bioavailability,"[1]; male, CD-1, mouse, blood, po",9.8 ± 3.1%
same,CL,"[1]; po, CD-1 mice",14.6 ± 3.5 L h^–1 kg^–1
same,T1/2,"[1]; po, CD-1 mice",1.67 ± 0.04 h
same,Vss,"[1]; po, CD-1 mice",35.0 ± 7.9 L/kg
same,dose well tolerated,KM mice; single oral dose,≤ 1200 mg/kg
same,acute toxicity,KM mice; single oral dose up to 1200 mg/kg,no acute toxicity
same,"abnormal behaviors, water/food consumption and body weight","KM mice; single oral doses 600 or 1200 mg/kg, 2 weeks",no abnormal behaviors and significant changes of water/food consumption and body weight were observed
same,mRNA expression of phosphoenolpyruvate carboxykinase,[2]; [9],inhibits the mRNA expression
same,8-Br-cAMP/dexamethasone-induced expression of PEPCK,"[2]; HepG2 cells, 10 nM, in words",back to the basal level
same,microsomal CLint at 0.5 μM,[3],62 µL/min/mg
same,Clapp,[3],244.3 mL min^–1 kg^–1
same,Clh,[3],65.8 mL min^–1 kg^–1
same,Eh,[3],73.1%
same,k,[3],0.03102
same,mRNA expression of glucose 6-phosphatase,[4]; [9],inhibits the mRNA expression
same,8-Br-cAMP/dexamethasone-induced expression of G-6-Pase,"[4]; HepG2 cells, 10 nM, in words",back to the basal level
same,solubility,[5],31 ± 4 µg/mL
"C[C@@H](Nc1nc2c(cnn2C2CCCC2)c(=O)[nH]1)C(=O)Nc1ccc(F)cc1 [Compound 8r, (R)-2-((1-Cyclopentyl-4-oxo-4,5-dihydro-1H-pyrazolo[3,4-d]pyrimidin-6-yl)amino)-N-(4-fluorophenyl)propanamide]",T1/2,[6]; iv,1.01 ± 0.09 h
same,C0,"[6]; male, SD, rat, blood, iv",19100 ± 428 ng/mL
same,MRT inf,"[6]; male, SD, rat, blood, iv",0.59 ± 0.13 h
same,Vd,"[6]; male, SD, rat, blood, iv",2.58 ± 0.07 L/kg
same,clearance,"[6]; male, SD, rat, blood, iv",29.7 mL/min/kg
same,Cmax,"[6]; male, SD, rat, blood, po",135 ± 55 ng/mL
same,MRT inf,"[6]; male, SD, rat, blood, po",3.94 ± 1.11 h
same,Tmax,"[6]; male, SD, rat, blood, po",1 ± 0.87 h
same,bioavailability,"[6]; male, SD, rat, blood, po",18 ± 7%
same,T1/2,[6]; po,4.08 ± 1.00 h
"COc1ccc(NC(=O)[C@@H](C)Nc2nc3c(cnn3-c3ccccc3Cl)c(=O)[nH]2)cc1 [Compound 28r, (R)-2-((1-(2-Chlorophenyl)-4-hydroxy-1H-pyrazolo[3,4-d]pyrimidin-6-yl)amino)-N-(4-methoxyphenyl)propanamide]",Ki,PDE9A2 (181–506) [7],0.005 µM
COc1ccc(NC(=O)[C@H](C)Nc2nc3c(cnn3-c3ccccc3Cl)c(=O)[nH]2)cc1 [Compound 28s],Cmax,Pharmacokinetics of 28s,16 ng/mL
same,Ki,PDE9A2 (181–506) [7],0.016 µM
same,IC50,PDE9A2 (181–506) [8],0.021 ± 0.005 µM
C[C@]12CC[C@H]3[C@@H](CCC4=CC(=O)CC[C@@]43C)[C@@H]1CC[C@@H]2O [testosterone],microsomal CLint at 0.5 μM,[3],692 µL/min/mg
same,Clapp,[3],2725.1 mL min^–1 kg^–1
same,Clh,[3],87.1 mL min^–1 kg^–1
same,Eh,[3],96.8%
same,k,[3],0.346
CC(=O)CC(c1ccccc1)c1c(O)c2ccccc2oc1=O (stereo not drawn) [warfarin],Clapp,[3],30.9 mL min^–1 kg^–1
same,Clh,[3],23.0 mL min^–1 kg^–1
insulin,mRNA expression of PEPCK,[2]; [10],to the basal level
same,mRNA expression of G-6-Pase,[4]; [10],to the basal level
